Experimental data from patent US5382430A, “Method for the stimulation of the immune system of an animal by use of limulus test-positive plant glycolipid” (priority 1989, dated 1995).

B1: parathyroid hormone (protein, UniProt P01270 32-115, looked up)
Parathyroid hormone: SVSEIQLMHNLGKHLNSMERVEWLRKKLQDVHNFVALGAPLAPRDAGSQRPRKKEDNVLVESHEKSLGEADKADVNVLTKAKSQ
notes: Already known parathyroid hormone which is a bony tissue absorbance hormone

Key:
TNF = details: prior art statement; cited from earlier work
[1] = test system: parietal bones of fowl's embryo; assay: Osteogenesis stimulation: osteoclast activation test, 45Ca leakage (Table 9); details: 1 unit/ml
Method: Stimulation of Osteogenesis
This stimulation was confirmed by an osteolast activation test.
Osteoclast cells are those in charge of absorbing bony tissue which destroy old bones in said tissue. […] As a result, the osteogenesis is presumed to be stimulated.
In the osteoclast activation test, parietal bones of fowl's embryo are used as experimental samples. That is, the parietal bones of fowl's embryo are labelled with ^45 Ca, and are cultured in a medium containing a medicine candidate (treated group) or in a said candidate-free medium (control group), and thereafter the quantity of the ^45 Ca remaining in the bones and that of the ^45 Ca leaked into the medium during culture are determined. The ^45 Ca leakage rates in both tile treated and control groups are calculated according to the following equation:
^45 Ca leakage rate=(Quantity of ^45 Ca leaked)/(Quantity of
remaining ^45 Ca+Quantity of ^45 Ca leaked)
The effect of the candidate is expressed by the following T/C rate:
T/C rate=(Quantity of ^45 Ca leaked in the treated group)/(Quantity of
^45 Ca leaked in the control group) […]
4) The medium (each, 250 μl) was added to 4.5 ml of ACSII scintillator (Amersham Co. In U.K.), and the counting was made on the basis of liquid scintillation to determine the quantity of the 45Ca leaked into the medium. […]

Molecule | TNF productivity (TNF) | 45Ca leakage, Treated T [1] | T/C rate [1]
CC(C)C[C@H](NC(=O)[C@@H](O)[C@H](N)Cc1ccccc1)C(=O)O [Bestatin, ubenimex] | no TNF productivity |  | 
lentinan | no TNF productivity |  | 
polysaccharide K [PSK] | no TNF productivity |  | 
sizofiran [Sonifilan] | no TNF productivity |  | 
B1 |  | 4.46 | 1.22
